Assay results from the kinase profiling compilation of Christmann-Franck et al. (2016).

What was measured:
Test in all cases: KINOMEscan competition binding
LYN (human) = LYN (human) (UniProt P07948)
CSF1R (human) = CSF1R (human) (UniProt P07333)
MYLK4 (human) = MYLK4 (human) (UniProt Q86YV6)
[1] = target: MET (human), P08581 [M1250T]
RPS6KA6 KD2 (human) = RPS6KA6 KD2 (human) (UniProt Q9UK32)
EPHB6 (human) = EPHB6 (human) (UniProt O15197)
CIT (human) = CIT (human) (UniProt O14578)
TXK (human) = TXK (human) (UniProt P42681)
[2] = target: JAK1 JH1 catalytic (human) (UniProt P23458)
LIMK2 (human) = LIMK2 (human) (UniProt P53671)
RIPK4 (human) = RIPK4 (human) (UniProt P57078)
EPHB4 (human) = EPHB4 (human) (UniProt P54760)
PI4KB (human) = PI4KB (human) (UniProt Q9UBF8)
SIK1 (human) = SIK1 (human) (UniProt P57059)
DYRK2 (human) = DYRK2 (human) (UniProt Q92630)
FGFR2 (human) = FGFR2 (human) (UniProt P21802)
PIK3CG (human) = PIK3CG (human) (UniProt P48736)
ABL2 (human) = ABL2 (human) (UniProt P42684)
EPHA6 (human) = EPHA6 (human) (UniProt Q9UF33)
MKNK2 (human) = MKNK2 (human) (UniProt Q9HBH9)
GSK3B (human) = GSK3B (human) (UniProt P49841)
[3] = target: FLT3 (human), P36888 [D835Y]
IRAK1 (human) = IRAK1 (human) (UniProt P51617)
STK25 (human) = STK25 (human) (UniProt O00506)
FGFR3 (human) = FGFR3 (human) (UniProt P22607)
MAP2K1 (human) = MAP2K1 (human) (UniProt Q02750)
[4] = target: JAK1 JH2 pseudokinase (human) (UniProt P23458)
MAP4K4 (human) = MAP4K4 (human) (UniProt O95819)
CSNK1G1 (human) = CSNK1G1 (human) (UniProt Q9HCP0)
MST1R (human) = MST1R (human) (UniProt Q04912)
TNIK (human) = TNIK (human) (UniProt Q9UKE5)
AURKB (human) = AURKB (human) (UniProt Q96GD4)
CAMK1D (human) = CAMK1D (human) (UniProt Q8IU85)
PRKACA (human) = PRKACA (human) (UniProt P17612)
STK4 (human) = STK4 (human) (UniProt Q13043)
CDK16 (human) = CDK16 (human) (UniProt Q00536)
HIPK1 (human) = HIPK1 (human) (UniProt Q86Z02)
MAP4K3 (human) = MAP4K3 (human) (UniProt Q8IVH8)
PRKD3 (human) = PRKD3 (human) (UniProt O94806)
PAK2 (human) = PAK2 (human) (UniProt Q13177)

CSNK1G1 (human), sequence (Q9HCP0 whole entry, looked up): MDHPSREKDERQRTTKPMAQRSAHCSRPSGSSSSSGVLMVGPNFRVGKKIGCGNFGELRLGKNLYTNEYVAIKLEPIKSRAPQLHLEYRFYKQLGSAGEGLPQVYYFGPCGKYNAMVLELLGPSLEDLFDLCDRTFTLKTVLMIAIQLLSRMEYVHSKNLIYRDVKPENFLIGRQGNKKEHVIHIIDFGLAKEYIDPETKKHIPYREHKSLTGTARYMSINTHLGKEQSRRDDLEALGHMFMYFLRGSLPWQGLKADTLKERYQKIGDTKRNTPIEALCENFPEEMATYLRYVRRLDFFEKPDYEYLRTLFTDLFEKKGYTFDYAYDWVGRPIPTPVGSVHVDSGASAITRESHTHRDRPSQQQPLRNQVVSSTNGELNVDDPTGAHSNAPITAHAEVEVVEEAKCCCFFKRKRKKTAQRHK
TXK (human), sequence (P42681 whole entry, looked up): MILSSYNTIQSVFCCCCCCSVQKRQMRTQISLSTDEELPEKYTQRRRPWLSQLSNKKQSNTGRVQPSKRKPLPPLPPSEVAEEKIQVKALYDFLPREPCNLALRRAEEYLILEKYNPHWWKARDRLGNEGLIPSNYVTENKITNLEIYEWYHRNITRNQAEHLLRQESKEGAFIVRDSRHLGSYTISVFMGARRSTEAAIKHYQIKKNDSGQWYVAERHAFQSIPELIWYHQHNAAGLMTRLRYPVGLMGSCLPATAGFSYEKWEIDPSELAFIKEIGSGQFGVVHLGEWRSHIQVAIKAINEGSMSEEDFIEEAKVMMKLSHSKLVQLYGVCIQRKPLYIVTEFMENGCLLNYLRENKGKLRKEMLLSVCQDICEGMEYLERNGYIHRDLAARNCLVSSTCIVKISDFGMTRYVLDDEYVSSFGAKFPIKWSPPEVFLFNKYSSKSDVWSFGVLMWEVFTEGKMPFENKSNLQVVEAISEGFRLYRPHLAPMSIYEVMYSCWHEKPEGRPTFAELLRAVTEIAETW
GSK3B (human), sequence (P49841 whole entry, looked up): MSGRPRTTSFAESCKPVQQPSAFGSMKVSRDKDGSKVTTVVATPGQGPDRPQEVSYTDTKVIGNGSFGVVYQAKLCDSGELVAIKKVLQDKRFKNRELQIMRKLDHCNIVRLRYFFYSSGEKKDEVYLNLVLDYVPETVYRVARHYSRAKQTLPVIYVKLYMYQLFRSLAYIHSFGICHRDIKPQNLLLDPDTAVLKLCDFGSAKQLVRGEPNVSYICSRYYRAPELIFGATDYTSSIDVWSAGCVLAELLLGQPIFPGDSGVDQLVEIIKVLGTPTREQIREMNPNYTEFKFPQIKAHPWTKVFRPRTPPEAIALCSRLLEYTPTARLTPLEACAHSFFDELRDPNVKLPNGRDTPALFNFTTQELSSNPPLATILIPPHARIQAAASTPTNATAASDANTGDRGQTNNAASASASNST
EPHA6 (human), sequence (Q9UF33 whole entry, looked up): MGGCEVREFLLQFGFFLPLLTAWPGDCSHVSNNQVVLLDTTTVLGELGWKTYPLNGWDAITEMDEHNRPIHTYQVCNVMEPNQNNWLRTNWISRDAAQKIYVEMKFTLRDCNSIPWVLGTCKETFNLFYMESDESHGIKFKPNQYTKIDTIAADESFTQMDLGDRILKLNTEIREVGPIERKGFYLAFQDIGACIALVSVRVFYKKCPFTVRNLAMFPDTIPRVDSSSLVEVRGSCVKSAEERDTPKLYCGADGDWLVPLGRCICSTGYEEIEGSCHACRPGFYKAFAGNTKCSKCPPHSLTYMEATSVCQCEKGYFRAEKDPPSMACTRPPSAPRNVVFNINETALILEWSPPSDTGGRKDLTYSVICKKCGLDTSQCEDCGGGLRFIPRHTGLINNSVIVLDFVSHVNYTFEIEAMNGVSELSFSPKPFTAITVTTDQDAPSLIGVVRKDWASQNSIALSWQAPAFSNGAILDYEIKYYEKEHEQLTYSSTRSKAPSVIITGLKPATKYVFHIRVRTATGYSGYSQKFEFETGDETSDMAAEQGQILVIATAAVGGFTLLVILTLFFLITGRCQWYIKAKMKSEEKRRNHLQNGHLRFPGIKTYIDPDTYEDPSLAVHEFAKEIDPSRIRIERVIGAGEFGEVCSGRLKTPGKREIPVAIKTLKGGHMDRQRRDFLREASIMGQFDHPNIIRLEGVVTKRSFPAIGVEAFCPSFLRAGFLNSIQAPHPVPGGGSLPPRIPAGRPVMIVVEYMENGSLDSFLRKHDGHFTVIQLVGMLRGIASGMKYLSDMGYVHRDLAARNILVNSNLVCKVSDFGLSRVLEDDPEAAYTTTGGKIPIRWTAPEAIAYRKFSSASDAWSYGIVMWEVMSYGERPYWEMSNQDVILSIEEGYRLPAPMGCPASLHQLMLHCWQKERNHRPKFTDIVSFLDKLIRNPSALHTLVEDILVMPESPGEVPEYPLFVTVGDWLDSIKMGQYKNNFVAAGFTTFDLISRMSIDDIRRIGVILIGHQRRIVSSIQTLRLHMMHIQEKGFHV
MYLK4 (human), sequence (Q86YV6 whole entry, looked up): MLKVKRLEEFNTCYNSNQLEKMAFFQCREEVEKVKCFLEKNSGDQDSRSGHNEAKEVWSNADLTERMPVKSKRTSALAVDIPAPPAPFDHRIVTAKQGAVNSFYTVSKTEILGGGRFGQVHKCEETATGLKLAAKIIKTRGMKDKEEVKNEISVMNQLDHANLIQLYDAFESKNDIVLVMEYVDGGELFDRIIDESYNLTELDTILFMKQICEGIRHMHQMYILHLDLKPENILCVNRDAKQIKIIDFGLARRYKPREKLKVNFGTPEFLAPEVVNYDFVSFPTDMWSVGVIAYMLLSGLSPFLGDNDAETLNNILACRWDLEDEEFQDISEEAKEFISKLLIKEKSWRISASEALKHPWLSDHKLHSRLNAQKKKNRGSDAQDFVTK
PRKD3 (human), sequence (O94806 whole entry, looked up): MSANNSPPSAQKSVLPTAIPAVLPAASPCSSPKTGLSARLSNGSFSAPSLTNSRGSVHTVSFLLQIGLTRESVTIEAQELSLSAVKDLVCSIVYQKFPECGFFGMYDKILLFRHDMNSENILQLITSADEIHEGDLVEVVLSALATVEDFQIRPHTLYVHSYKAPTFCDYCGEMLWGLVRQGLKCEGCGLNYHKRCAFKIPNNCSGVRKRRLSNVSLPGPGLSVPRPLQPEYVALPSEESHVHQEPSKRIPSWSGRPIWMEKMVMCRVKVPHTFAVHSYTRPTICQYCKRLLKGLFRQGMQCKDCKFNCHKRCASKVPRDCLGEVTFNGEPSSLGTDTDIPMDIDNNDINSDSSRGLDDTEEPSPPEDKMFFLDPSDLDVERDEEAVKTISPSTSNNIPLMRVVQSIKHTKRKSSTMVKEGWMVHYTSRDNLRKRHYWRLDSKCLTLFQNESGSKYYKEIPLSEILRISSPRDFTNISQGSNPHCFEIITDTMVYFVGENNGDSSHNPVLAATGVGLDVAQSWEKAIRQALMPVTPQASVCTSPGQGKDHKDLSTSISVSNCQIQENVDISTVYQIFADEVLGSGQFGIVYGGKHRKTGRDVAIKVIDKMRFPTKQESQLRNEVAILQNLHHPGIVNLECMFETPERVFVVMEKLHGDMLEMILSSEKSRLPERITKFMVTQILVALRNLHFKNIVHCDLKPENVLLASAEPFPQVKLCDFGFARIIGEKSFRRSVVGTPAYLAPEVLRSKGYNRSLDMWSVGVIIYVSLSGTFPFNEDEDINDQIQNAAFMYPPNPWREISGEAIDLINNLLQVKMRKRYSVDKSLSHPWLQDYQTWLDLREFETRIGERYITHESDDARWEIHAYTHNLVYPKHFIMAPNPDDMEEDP
MET (human), P08581 [M1250T], sequence (P08581 whole entry M1250T, looked up): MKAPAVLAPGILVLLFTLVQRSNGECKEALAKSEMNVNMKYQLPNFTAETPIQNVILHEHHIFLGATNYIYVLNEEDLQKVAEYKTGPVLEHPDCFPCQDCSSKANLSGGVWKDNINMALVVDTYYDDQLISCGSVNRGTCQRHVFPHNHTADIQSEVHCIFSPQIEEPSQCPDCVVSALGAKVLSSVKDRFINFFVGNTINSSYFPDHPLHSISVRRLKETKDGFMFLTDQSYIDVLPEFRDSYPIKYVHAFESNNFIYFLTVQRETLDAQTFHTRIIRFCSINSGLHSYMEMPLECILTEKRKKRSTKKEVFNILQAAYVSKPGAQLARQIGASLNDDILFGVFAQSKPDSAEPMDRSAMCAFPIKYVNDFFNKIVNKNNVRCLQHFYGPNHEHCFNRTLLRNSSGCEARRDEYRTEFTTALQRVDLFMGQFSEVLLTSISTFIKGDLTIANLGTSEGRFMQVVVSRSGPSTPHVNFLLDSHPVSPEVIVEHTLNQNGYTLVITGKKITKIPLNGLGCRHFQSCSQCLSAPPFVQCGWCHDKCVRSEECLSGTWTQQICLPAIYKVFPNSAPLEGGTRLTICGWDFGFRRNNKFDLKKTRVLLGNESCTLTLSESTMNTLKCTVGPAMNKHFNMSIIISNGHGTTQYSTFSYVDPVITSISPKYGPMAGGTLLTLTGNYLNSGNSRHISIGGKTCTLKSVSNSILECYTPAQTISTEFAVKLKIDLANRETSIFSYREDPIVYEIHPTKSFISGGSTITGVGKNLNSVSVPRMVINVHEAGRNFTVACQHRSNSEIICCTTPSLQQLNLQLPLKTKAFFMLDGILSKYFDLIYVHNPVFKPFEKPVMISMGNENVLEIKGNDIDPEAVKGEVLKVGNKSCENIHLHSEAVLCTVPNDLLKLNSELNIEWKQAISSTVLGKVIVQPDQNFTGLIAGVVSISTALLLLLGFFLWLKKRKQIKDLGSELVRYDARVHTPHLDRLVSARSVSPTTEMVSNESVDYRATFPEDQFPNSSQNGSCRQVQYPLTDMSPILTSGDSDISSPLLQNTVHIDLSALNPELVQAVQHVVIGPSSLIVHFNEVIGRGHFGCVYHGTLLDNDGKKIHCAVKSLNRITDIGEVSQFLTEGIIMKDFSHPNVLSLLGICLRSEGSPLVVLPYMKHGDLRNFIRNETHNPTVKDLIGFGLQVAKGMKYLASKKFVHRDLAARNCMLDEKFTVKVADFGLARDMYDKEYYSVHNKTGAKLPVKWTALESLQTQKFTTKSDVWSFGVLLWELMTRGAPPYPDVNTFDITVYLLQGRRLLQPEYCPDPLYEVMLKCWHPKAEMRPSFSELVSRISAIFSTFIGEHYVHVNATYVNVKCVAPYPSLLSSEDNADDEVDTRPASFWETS

COc1cc2ncnc(Oc3cccc(NC(=O)Nc4cc(C(C)(C)C(F)(F)F)on4)c3)c2cc1OC
Kd (LYN (human)): 0.002 µM | Kd (CSF1R (human)): 0.0086 µM | Kd (MYLK4 (human)): 12 µM | Kd [1]: 2.1 µM | Kd (RPS6KA6 KD2 (human)): 6.4 µM | Kd (EPHB6 (human)): 0.092 µM | Kd (CIT (human)): 0.21 µM | Kd (TXK (human)): 0.19 µM | Kd [2]: 29 µM | Kd (LIMK2 (human)): 3.8 µM | Kd (RIPK4 (human)): 16 µM | Kd (EPHB4 (human)): 0.086 µM | Kd (PI4KB (human)): 29 µM | Kd (SIK1 (human)): 1.8 µM | Kd (DYRK2 (human)): 27 µM | Kd (FGFR2 (human)): 3 µM | Kd (PIK3CG (human)): 30 µM | Kd (ABL2 (human)): 0.014 µM | Kd (EPHA6 (human)): 0.0055 µM | Kd (MKNK2 (human)): 0.071 µM | Kd (GSK3B (human)): 29 µM | Kd [3]: 0.23 µM | Kd (IRAK1 (human)): 9.6 µM | Kd (STK25 (human)): 19 µM | Kd (FGFR3 (human)): 3.3 µM | Kd (MAP2K1 (human)): 7.1 µM | Kd [4]: 33 µM | Kd (MAP4K4 (human)): 0.056 µM | Kd (CSNK1G1 (human)): 36 µM | Kd (MST1R (human)): 6.4 µM | Kd (TNIK (human)): 0.066 µM | Kd (AURKB (human)): 25 µM | Kd (CAMK1D (human)): 3.8 µM | Kd (PRKACA (human)): 13 µM | Kd (STK4 (human)): 30 µM | Kd (CDK16 (human)): 1.6 µM | Kd (HIPK1 (human)): 4.7 µM | Kd (MAP4K3 (human)): 2.3 µM | Kd (PRKD3 (human)): 6.3 µM | Kd (PAK2 (human)): 34 µM
